Experiment: xn = mol fraction of the nth substance listed
Settings: 100 kPa

CCOCCO + CCCC[n+]1ccn(C)c1.O=S(=O)([N-]S(=O)(=O)C(F)(F)F)C(F)(F)F
speed of sound [m/s]
Settings | x2 = 0 | x2 = 0.1036 | x2 = 0.1905 | x2 = 0.2965 | x2 = 0.3882 | x2 = 0.489 | x2 = 0.5889 | x2 = 0.7018 | x2 = 0.7928 | x2 = 0.9071
298.15 K | 1302.8 | 1279.9 | – | – | 1240.5 | 1234.5 | 1231.4 | 1230.7 | – | 1228.3
303.15 K | 1285.1 | 1264.6 | 1246.6 | 1234.2 | – | 1223.9 | 1219.6 | 1219 | 1218.4 | 1217.3
308.15 K | 1267.3 | 1248.9 | 1232.1 | 1220.6 | 1214.5 | 1210.4 | 1207.6 | 1207.2 | 1206.9 | 1206.1
313.15 K | – | 1230.1 | 1217.7 | – | – | 1198 | 1197.7 | 1196.5 | 1196 | 1195
318.15 K | 1232 | 1217.4 | 1203.3 | – | – | 1187.7 | 1186.9 | 1185.9 | – | 1185
323.15 K | 1214.3 | 1201.5 | 1189 | – | 1176.2 | 1175.5 | 1175 | 1174.9 | 1174.3 | 1174

CCCC[n+]1ccn(C)c1.O=S(=O)([N-]S(=O)(=O)C(F)(F)F)C(F)(F)F + CCOCCO
x1 = 1
Settings | speed of sound [m/s]
298.15 K | 1227.8
303.15 K | 1216.7
308.15 K | 1205.8
313.15 K | 1194.9
318.15 K | 1184.2
323.15 K | 1173.6
